Assay results as given in patent US20230192686A1, “1H-PYRROLO[2,3-B]PYRIDINES AND PREPARATION AND USES THEREOF” (BioSplice Therapeutics, Inc., priority 2021, published 2023).
pEC50: −log10 of the molar value.

Molecular target: recombinant DYRK1A kinase (Homo sapiens, UniProt Q13627)
Test: DYRK1A kinase assay (Ser/Thr 18 peptide Z-lyte FRET)
Type: biochemical
Details: DYRK1A kinase activity; 15 μM ATP, 4 μM Ser/Thr peptide 18, one hour at room temperature
Procedure, shortened: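 Recombinant DYRK1A at 0.25 μg/mL was incubated 1 h at room temperature with 15 μM ATP, 4 μM Ser/Thr 18 peptide and compound, in duplicate, 11-point series from 10 μM. Phosphorylation was read by Z-lyte FRET after 1 h protease development, as the coumarin/fluorescein emission ratio converted to % phosphorylation. IC50 by non-linear regression.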

Structure (SMILES)	pEC50
c1cnc2[nH]cc(-c3nc4cnccc4[nH]3)c2c1 [Compound 7, 2-(1H-Pyrrolo[2,3-b]pyridin-3-yl)-1H-imidazo[4,5-c]pyridine]	6.70
Cc1nc2c(F)cc(-c3c[nH]c4ncc(N5CCN(C)CC5)cc34)cc2n1C(C)C [Compound 367, 4-Fluoro-1-isopropyl-2-methyl-6-(5-(4-methylpiperazin-1-yl)-1H-pyrrolo[2,3-b]pyridin-3-yl)-1H-benzo[d]imidazole]	8.70
CN1CCN(c2cc(-c3cnc4[nH]cc(-c5cc6ccncc6s5)c4c3)ccn2)CC1 [Compound 1370, 2-(5-(2-(4-Methylpiperazin-1-yl)pyridin-4-yl)-1H-pyrrolo[2,3-b]pyridin-3-yl)thieno[2,3-c]pyridine]	8.22
COc1ccc2c(-c3ccc4nccn4c3)c[nH]c2n1 [Compound 1666, 6-(6-Methoxy-1H-pyrrolo[2,3-b]pyridin-3-yl)imidazo[1,2-a]pyridine]	7.74
CN1CCC(Nc2ncnc3ccc(-c4c[nH]c5ncc(-c6cnn(C)c6)cc45)cc23)CC1 [Compound 1074, 6-(5-(1-Methyl-1H-pyrazol-4-yl)-1H-pyrrolo[2,3-b]pyridin-3-yl)-N-(1-methylpiperidin-4-yl)quinazolin-4-amine]	7.72
Cc1nc2c(F)cc(-c3c[nH]c4nc(C5CCC5)ccc34)cc2n1C(C)C [Compound 1543, 6-(6-Cyclobutyl-1H-pyrrolo[2,3-b]pyridin-3-yl)-4-fluoro-1-isopropyl-2-methyl-1H-benzo[d]imidazole]	7.37
c1cnc2[nH]cc(-c3cn4ccnc4cn3)c2c1 [Compound 20, 6-(1H-Pyrrolo[2,3-b]pyridin-3-yl)imidazo[1,2-a]pyrazine]	8.00
CN1CCN(c2cc(CNc3ncnc4ccc(-c5c[nH]c6ncccc56)cc34)ccn2)CC1 [Compound 105, N-((2-(4-Methylpiperazin-1-yl)pyridin-4-yl)methyl)-6-(1H-pyrrolo [2,3-b]pyridin-3-yl)quinazolin-4-amine]	8.40
COc1ncnc2ccc(-c3c[nH]c4ncc(-c5cccnc5)cc34)cc12 [Compound 1197, 4-Methoxy-6-(5-(pyridin-3-yl)-1H-pyrrolo[2,3-b]pyridin-3-yl) quinazoline]	8.52
O=C(Nc1ccc2c(-c3ccc4c(c3)C3(CCNCC3)CC4=O)c[nH]c2n1)c1ccncc1 [Compound 1898, N-(3-(3-oxo-2,3-dihydrospiro[indene-1,4′-piperidin]-6-yl)-1H-pyrrolo [2,3-b]pyridin-6-yl)isonicotinamide]	7.70
Cn1cc(-c2cnc3[nH]cc(-c4ccc5nccn5c4)c3c2)cn1 [Compound 1036, 6-(5-(1-Methyl-1H-pyrazol-4-yl)-1H-pyrrolo[2,3-b]pyridin-3-yl) imidazo[1,2-a]pyridine]	8.70
c1cnc2sc(-c3c[nH]c4ncccc34)nc2c1 [Compound 4, 2-(1H-Pyrrolo[2,3-b]pyridin-3-yl)thiazolo[5,4-b]pyridine]	8.15
COc1ncnc2ccc(-c3c[nH]c4nc(C5CC5)ccc34)cc12 [Compound 1533, 6-(6-Cyclopropyl-1H-pyrrolo[2,3-b]pyridin-3-yl)-4-methoxyquinazoline]	6.64
O=C(c1cnn2ccc(-c3c[nH]c4ncccc34)cc12)N1CCNC2(CC2)C1 [Compound 57, (5-(1H-Pyrrolo[2,3-b]pyridin-3-yl)pyrazolo[1,5-a]pyridin-3-yl)(4,7-diazaspiro[2.5]octan-7-yl)methanone]	8.52
O=C(c1ncnc2ccc(-c3c[nH]c4ncccc34)cc12)N1CCNC2(CC2)C1 [Compound 108, (6-(1H-Pyrrolo[2,3-b]pyridin-3-yl)quinazolin-4-yl)(4,7-diazaspiro [2.5]octan-7-yl)methanone]	7.28
CN1CCN(c2ccc(CNc3ccnc4[nH]cc(-c5ccc6ncccc6c5)c34)cn2)CC1 [Compound 2051, N-((6-(4-Methylpiperazin-1-yl)pyridin-3-yl)methyl)-3-(quinolin-6-yl)-1H-pyrrolo[2,3-b]pyridin-4-amine]	7.43
c1cnc2[nH]cc(-c3ccc4ncnc(N5CCNC6(CCC6)C5)c4c3)c2c1 [Compound 97, 6-(1H-Pyrrolo[2,3-b]pyridin-3-yl)-4-(5,8-diazaspiro[3.5]nonan-8-yl) quinazoline]	8.70
Cc1nc2c(F)cc(-c3c[nH]c4ncc(Nc5ccnc(N6CCN(C)CC6)c5)cc34)cc2n1C(C)C [Compound 871, 3-(4-Fluoro-1-isopropyl-2-methyl-1H-benzo[d]imidazol-6-yl)-N-(2-(4-methylpiperazin-1-yl)pyridin-4-yl)-1H-pyrrolo[2,3-b]pyridin-5-amine]	8.70
Cc1nc2c(F)cc(-c3c[nH]c4ncc(C(=O)Nc5ccc(N6CCN(C)CC6)nc5)cc34)cc2n1C(C)C [Compound 787, 3-(4-Fluoro-1-isopropyl-2-methyl-1H-benzo[d]imidazol-6-yl)-N-(6-(4-methylpiperazin-1-yl)pyridin-3-yl)-1H-pyrrolo[2,3-b]pyridine-5-carboxamide]	8.52
Cc1nc2c(F)cc(-c3c[nH]c4ncccc34)cc2n1C1CCNCC1 [Compound 23, 4-Fluoro-2-methyl-1-(piperidin-4-yl)-6-(1H-pyrrolo[2,3-b]pyridin-3-yl)-1H-benzo[d]imidazole]	8.70
O=C(Nc1cncc(F)c1)c1cnc2[nH]cc(-c3ccc4c(c3)C3(CCNCC3)CC4=O)c2c1 [Compound 764, N-(5-fluoropyridin-3-yl)-3-(3-oxo-2,3-dihydrospiro[indene-1,4′-piperidin]-6-yl)-1H-pyrrolo[2,3-b]pyridine-5-carboxamide]	7.66
O=C1NCCOc2cc(-c3c[nH]c4nc(C5CCC5)ccc34)ccc21 [Compound 1571, 8-(6-Cyclobutyl-1H-pyrrolo[2,3-b]pyridin-3-yl)-3,4-dihydrobenzo[f] [1,4]oxazepin-5(2H)-one]	7.30
O=C(NCC1(F)CNC1)c1cnn2ccc(-c3c[nH]c4ncccc34)cc12 [Compound 41, N-((3-Fluoroazetidin-3-yl)methyl)-5-(1H-pyrrolo[2,3-b]pyridin-3-yl) pyrazolo[1,5-a]pyridine-3-carboxamide]	8.70
c1cnc2[nH]cc(-c3ccc4ncnn4c3)c2c1 [Compound 29, 6-(1H-Pyrrolo[2,3-b]pyridin-3-yl)-[1,2,4]triazolo[1,5-a]pyridine]	8.00
CN1CCN(C(=O)c2cnn3ccc(-c4c[nH]c5ncc(-c6cnn(C)c6)cc45)cc23)CC1 [Compound 1055, (5-(5-(1-Methyl-1H-pyrazol-4-yl)-1H-pyrrolo[2,3-b]pyridin-3-yl)pyrazolo[1,5-a]pyridin-3-yl)(4-methylpiperazin-1-yl)methanone]	8.05
Cc1nc2c(F)cc(-c3c[nH]c4ncc(C5=CCN(C)CC5)cc34)cc2n1C(C)C [Compound 325, 4-Fluoro-1-isopropyl-2-methyl-6-(5-(1-methyl-1,2,3,6-tetrahydropyridin-4-yl)-1H-pyrrolo[2,3-b]pyridin-3-yl)-1H-benzo[d]imidazole]	8.70
CN1CCC(Oc2cnc3ccc(-c4c[nH]c5ncccc45)cc3n2)CC1 [Compound 91, 2-((1-Methylpiperidin-4-yl)oxy)-7-(1H-pyrrolo[2,3-b]pyridin-3-yl) quinoxaline]	8.52
Cc1cn2c(n1)CN(C(=O)c1cnc3[nH]cc(-c4cc(F)c5nc(C)n(C(C)C)c5c4)c3c1)CC2 [Compound 577, (3-(4-Fluoro-1-isopropyl-2-methyl-1H-benzo[d]imidazol-6-yl)-1H-pyrrolo[2,3-b]pyridin-5-yl)(2-methyl-5,6-dihydroimidazo[1,2-a]pyrazin-7(8H)-yl)methanone]	8.52
Cc1nc2c(F)cc(-c3c[nH]c4ncccc34)cc2n1C1CCN(C)CC1 [Compound 24, 4-Fluoro-2-methyl-1-(1-methylpiperidin-4-yl)-6-(1H-pyrrolo[2,3-b]pyridin-3-yl)-1H-benzo[d]imidazole]	9.00
CN1CCN(c2ccc(NC(=O)c3cnc4[nH]cc(-c5ccc6c(c5)C(C)(C)CNC6=O)c4c3)cn2)CC1 [Compound 813, 3-(4,4-Dimethyl-1-oxo-1,2,3,4-tetrahydroisoquinolin-6-yl)-N-(6-(4-methylpiperazin-1-yl)pyridin-3-yl)-1H-pyrrolo[2,3-b]pyridine-5-carboxamide]	8.52
